Results from ChEMBL document CHEMBL2429715, “Potent P-glycoprotein inhibition of emodin derivative: synthesis and biological evaluation” (Med Chem Res, 2013).

Experiments:
HepG2 = assay: Growth inhibition of human HepG2 cells at 10 uM after 48 hrs by MTT assay relative to control; assay type: functional; details: HepG2, 48 h, read-out: GI
[1] = target: T1, ATP-dependent translocase ABCB1 (Homo sapiens, UniProt P08183); assay: Inhibition of P-glycoprotein in human K562/ADR cells at 10 to 20 uM after 30 mins by rhodamine 123 staining-based fluorescence assay; assay type: cell-based; details: 0.5 h
HCT-116 = assay: Growth inhibition of human HCT116 cells at 10 uM after 48 hrs by MTT assay relative to control; assay type: functional; details: HCT-116, 48 h, read-out: GI
[2] = Growth inhibition of human QSG7701 cells at 10 uM after 48 hrs by MTT assay relative to control; details: read-out: GI
K562 = assay: Growth inhibition of human K562 cells at 10 uM after 48 hrs by MTT assay relative to control; assay type: functional; details: K562, 48 h, read-out: GI
[3] = target: T1, ATP-dependent translocase ABCB1; assay: Inhibition of P-glycoprotein in human K562/ADR cells after 30 mins by rhodamine 123 staining-based fluorescence assay; assay type: cell-based; details: 0.5 h
[4] = target: T1, ATP-dependent translocase ABCB1; assay: Inhibition of P-glycoprotein in human K562/ADR cells at 20 to 50 uM after 30 mins by rhodamine 123 staining-based fluorescence assay; assay type: cell-based; details: 0.5 h

T1 sequence (P08183 whole entry): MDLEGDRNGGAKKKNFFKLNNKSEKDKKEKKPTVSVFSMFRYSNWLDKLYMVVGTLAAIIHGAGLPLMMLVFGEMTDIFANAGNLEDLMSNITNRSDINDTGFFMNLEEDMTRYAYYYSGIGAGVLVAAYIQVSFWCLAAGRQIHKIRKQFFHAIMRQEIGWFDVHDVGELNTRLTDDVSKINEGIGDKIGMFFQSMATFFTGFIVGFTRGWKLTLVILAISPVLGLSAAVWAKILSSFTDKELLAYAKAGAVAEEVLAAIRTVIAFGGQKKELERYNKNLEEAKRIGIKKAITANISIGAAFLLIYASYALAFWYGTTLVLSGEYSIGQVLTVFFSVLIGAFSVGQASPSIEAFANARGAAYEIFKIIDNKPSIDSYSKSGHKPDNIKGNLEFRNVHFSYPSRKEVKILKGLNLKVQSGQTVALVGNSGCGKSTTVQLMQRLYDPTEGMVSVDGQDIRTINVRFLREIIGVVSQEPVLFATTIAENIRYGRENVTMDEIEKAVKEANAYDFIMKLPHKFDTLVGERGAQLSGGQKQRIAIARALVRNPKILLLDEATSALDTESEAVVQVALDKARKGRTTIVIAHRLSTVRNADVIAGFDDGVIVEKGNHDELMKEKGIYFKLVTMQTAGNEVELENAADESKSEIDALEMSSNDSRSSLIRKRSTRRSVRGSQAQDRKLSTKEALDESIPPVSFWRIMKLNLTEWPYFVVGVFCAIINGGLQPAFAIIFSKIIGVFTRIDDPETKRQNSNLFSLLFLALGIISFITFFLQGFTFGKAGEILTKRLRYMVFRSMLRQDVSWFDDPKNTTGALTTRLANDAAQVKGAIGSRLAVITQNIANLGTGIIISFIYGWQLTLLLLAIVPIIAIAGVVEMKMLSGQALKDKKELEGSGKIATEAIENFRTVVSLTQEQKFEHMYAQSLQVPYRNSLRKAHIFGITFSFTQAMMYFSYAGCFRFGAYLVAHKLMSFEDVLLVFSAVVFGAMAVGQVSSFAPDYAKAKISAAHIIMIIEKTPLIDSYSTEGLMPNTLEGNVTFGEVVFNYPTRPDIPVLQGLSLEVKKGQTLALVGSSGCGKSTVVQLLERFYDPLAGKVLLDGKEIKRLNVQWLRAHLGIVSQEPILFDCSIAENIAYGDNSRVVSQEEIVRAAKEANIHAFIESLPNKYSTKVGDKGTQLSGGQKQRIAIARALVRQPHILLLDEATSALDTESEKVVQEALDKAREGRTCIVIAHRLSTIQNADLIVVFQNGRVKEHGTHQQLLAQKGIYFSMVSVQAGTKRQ

| inhibition (INH) [1] | inhibition (INH) [3] | inhibition (INH) [4] | SMILES | inhibition of growth at 10 µM (HepG2) [%] | inhibition of growth at 10 µM (HCT-116) [%] | inhibition at 48 h, 10 µM [2] [%] | inhibition of growth at 10 µM (K562) [%] |
| --- | --- | --- | --- | --- | --- | --- | --- |
| Active | Dose-dependent effect | – | COc1cc(OC)c2c(c1)C(=O)c1cc(CNCCCNCCCN)cc(OC)c1C2=O.Cl | 5.85 | 15.3 | 0.01 | 0.01 |
| – | – | Not Active | COc1cc(OC)c2c(c1)C(=O)c1cc(CNCCCN)cc(OC)c1C2=O.Cl.Cl | 0.01 | 31.9 | 5.77 | 0.01 |
| – | – | Not Active | COc1cc(OC)c2c(c1)C(=O)c1cc(CNCCCCN)cc(OC)c1C2=O.Cl.Cl | 0.01 | 27.5 | 0.01 | 0.01 |

Second part, the compound before the results:

| SMILES | inhibition (INH) [1] | inhibition (INH) [3] | inhibition (INH) [4] | inhibition of growth at 10 µM (HepG2) [%] | inhibition of growth at 10 µM (HCT-116) [%] | inhibition at 48 h, 10 µM [2] [%] | inhibition of growth at 10 µM (K562) [%] |
| --- | --- | --- | --- | --- | --- | --- | --- |
| COc1cc(OC)c2c(c1)C(=O)c1cc(CNCCN)cc(OC)c1C2=O.Cl.Cl | – | – | Not Active | 0.01 | 25.4 | 2.55 | 0.01 |
| O=C1c2c(O)ccc(O)c2C(=O)c2c(NCCNCCO)ccc(NCCNCCO)c21 [MITOXANTRONE] | – | – | – | 62.7 | 53.2 | 59 | 52.1 |
| COc1ccc(CCN(C)CCCC(C#N)(c2ccc(OC)c(OC)c2)C(C)C)cc1OC (stereo unspecified) [VERAPAMIL] | Active | – | – | – | – | – | – |
